Laboratory results from patent US20260007133A1, “HERBICIDAL COMPOSITION COMPRISING AZINE COMPOUNDS” (BASF SE, priority 2022, published 2026).
Where two headings read alike, the source gives them in different places.

Tests used:
Type in all cases: in vivo
[1] = system: Euphorbia heterophylla; experiment: Greenhouse post-emergence (POST) herbicidal test on EPHHL; details: Euphorbia heterophylla, post-emergence
Procedure, shortened: (§1)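 Sow or transplant seedlings into loamy-sand pots; grow to 3–15 cm; spray aqueous suspension/emulsion of actives from a 5% by weight emulsion concentrate; hold at 10-25° C or 20-35° C depending on species; score injury 0–100 at 20 DAT.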

[2] = system: Alopecurus myosuroides; experiment: Greenhouse pre-emergence (PRE) herbicidal test on ALOMY
Procedure, shortened: (§2)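 Pre-emergence greenhouse assay: sown loamy-sand pots (humus approx. 3.0%) were kept under transparent hoods until rooting, then grown at species-appropriate 10-25° C or 20-35° C. Response ratings of 0 (no damage) to 100 (no plants emerged) were recorded 20 days after application.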

[3] = system: Abutilon theophrasti; experiment: Greenhouse post-emergence (POST) herbicidal test on ABUTH; details: Abutilon theophrasti, post-emergence
Procedure, shortened: as §1

[4] = system: Amaranthus retroflexus; experiment: Greenhouse pre-emergence (PRE) herbicidal test on AMARE; details: Amaranthus retroflexus, pre-emergence
Procedure, shortened: as §2

[5] = system: Setaria viridis; experiment: Greenhouse pre-emergence (PRE) herbicidal test on SETVI; details: Setaria viridis, pre-emergence
Procedure, shortened: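 Herbicidal effect is scored from 0 (no damage) to 100 (no emergence or above-ground parts destroyed), 20 days after treatment. Application is pre-emergent onto sown pots, with components given as a 5% by weight emulsion concentrate in the spray liquor.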

[6] = system: Euphorbia heterophylla; experiment: Greenhouse pre-emergence (PRE) herbicidal test on EPHHL; details: Euphorbia heterophylla, pre-emergence
Procedure, shortened: as §2

[7] = system: Geranium pusillum; experiment: Greenhouse post-emergence (POST) herbicidal test on GERPU; details: Geranium pusillum, post-emergence, 432 h, POST, GERPU, 18 DAT
Procedure, shortened: as §1

SMILES: COc1c(Br)cc(F)c(F)c1Nc1nc(N)nc(C(C)(C)F)n1 [Compound I-2]
- pest or weed control at 2 g/ha ([1]; 432 h, POST, EPHHL, I-2 solo 2 gai/ha, 18 DAT): 25%
- inhibition at 2 g/ha ([1]; 480 h, EPHHL POST, 20 DAT, use rate 2 gai/ha, read-out: % activity): 10%
- pest or weed control at 2 g/ha ([1]; 480 h, POST, 2 gai/ha, 20 DAT): 10%
- inhibition at 8 g/ha ([1]; 480 h, POST, EPHHL, 8 gai/ha, 20 DAT, read-out: % activity solo application): 30%
- inhibition at 4 g/ha ([1]; 480 h, POST, EPHHL, use rate 4 gai/ha, 20 DAT): 50%
- inhibition at 8 g/ha ([1]; 480 h, POST, EPHHL, use rate 8 gai/ha, 20 DAT, read-out: % activity): 60%
- % activity ([2]; ALOMY PRE, use rate 8 gai/ha): 85%
- pest or weed control at 2 g/ha ([2]; Alopecurus myosuroides, pre-emergence, 432 h, PRE, ALOMY, I-2 solo 2 gai/ha, 18 DAT, read-out: % activity): 5%
- pest or weed control at 8 g/ha ([2]; Alopecurus myosuroides, pre-emergence, 432 h, PRE, ALOMY, I-2 solo 8 gai/ha, 18 DAT): 75%
- pest or weed control at 8 g/ha ([2]; Alopecurus myosuroides, pre-emergence, 480 h, PRE, 8 gai/ha, 20 DAT): 5%
- inhibition at 2 g/ha ([2]; Alopecurus myosuroides, pre-emergence, 480 h, PRE, ALOMY, 2 gai/ha, 20 DAT, read-out: % activity solo application): 20%
- inhibition at 8 g/ha ([2]; Alopecurus myosuroides, pre-emergence, 480 h, PRE, ALOMY, 8 gai/ha, 20 DAT, read-out: % activity solo application): 75%
- inhibition at 8 g/ha ([2]; Alopecurus myosuroides, pre-emergence, 480 h, PRE, ALOMY, use rate 8 gai/ha, 20 DAT, read-out: solo application % activity): 75%
- inhibition at 16 g/ha ([2]; Alopecurus myosuroides, pre-emergence, 480 h, PRE, ALOMY, use rate 16 gai/ha, 20 DAT): 95%
- inhibition at 2 g/ha ([2]; Alopecurus myosuroides, pre-emergence, 480 h, PRE, use rate 2 gai/ha, 20 DAT, read-out: % activity): 40%
- inhibition at 8 g/ha ([2]; Alopecurus myosuroides, pre-emergence, ALOMY PRE, use rate 8 gai/ha, read-out: % activity): 70%
- inhibition at 2 g/ha ([2]; Alopecurus myosuroides, pre-emergence, PRE, ALOMY, use rate 2 gai/ha, read-out: % activity): 20%
- pest or weed control at 2 g/ha ([3]; 432 h, POST, ABUTH, I-2 solo 2 gai/ha, 18 DAT): 20%
- pest or weed control at 8 g/ha ([3]; 432 h, POST, ABUTH, I-2 solo 8 gai/ha, 18 DAT): 20%
- inhibition at 2 g/ha ([3]; 480 h, ABUTH POST, 20 DAT, use rate 2 gai/ha, read-out: % activity): 10%
- pest or weed control at 2 g/ha ([3]; 480 h, POST, 2 gai/ha, 20 DAT): 10%
- inhibition at 2 g/ha ([3]; 480 h, POST, ABUTH, 2 gai/ha, 20 DAT, read-out: % activity solo application): 15%
- inhibition at 8 g/ha ([3]; 480 h, POST, ABUTH, 8 gai/ha, 20 DAT, read-out: % activity solo application): 40%
- inhibition at 8 g/ha ([3]; 480 h, POST, ABUTH, use rate 8 gai/ha, 20 DAT, read-out: solo application % activity): 40%
- pest or weed control at 2 g/ha ([4]; 432 h, PRE, AMARE, I-2 solo 2 gai/ha, 18 DAT): 80%
- inhibition at 2 g/ha ([4]; 480 h, AMARE PRE, 20 DAT, use rate 2 gai/ha, read-out: % activity): 70%
- pest or weed control at 2 g/ha ([4]; 480 h, PRE, 2 gai/ha, 20 DAT): 70%
- inhibition at 2 g/ha ([4]; 480 h, PRE, AMARE, 2 gai/ha, 20 DAT, read-out: % activity solo application): 70%
- inhibition at 2 g/ha ([4]; 480 h, PRE, AMARE, use rate 2 gai/ha, 20 DAT, read-out: solo application % activity): 70%
- pest or weed control at 2 g/ha ([5]; 432 h, PRE, SETVI, I-2 solo 2 gai/ha, 18 DAT): 70%
- pest or weed control at 2 g/ha ([5]; 480 h, PRE, 2 gai/ha, 20 DAT): 10%
- inhibition at 2 g/ha ([5]; 480 h, PRE, SETVI, 2 gai/ha, 20 DAT, read-out: % activity solo application): 25%
- inhibition at 2 g/ha ([5]; 480 h, SETVI PRE, 20 DAT, use rate 2 gai/ha, read-out: % activity): 10%
- inhibition at 2 g/ha ([5]; PRE, SETVI, use rate 2 gai/ha, read-out: % activity): 10%
- inhibition at 4 g/ha ([5]; PRE, SETVI, use rate 4 gai/ha): 30%
- pest or weed control at 2 g/ha ([6]; 432 h, PRE, EPHHL, I-2 solo 2 gai/ha, 18 DAT): 10%
- pest or weed control at 8 g/ha ([6]; 432 h, PRE, EPHHL, I-2 solo 8 gai/ha, 18 DAT): 35%
- inhibition at 8 g/ha ([6]; 480 h, EPHHL PRE, 20 DAT, use rate 8 gai/ha, read-out: % activity): 10%
- pest or weed control at 2 g/ha ([6]; 480 h, PRE, 2 gai/ha, 20 DAT): 10%
- pest or weed control at 8 g/ha ([6]; 480 h, PRE, 8 gai/ha, 20 DAT): 10%
- inhibition at 2 g/ha ([6]; 480 h, PRE, EPHHL, 2 gai/ha, 20 DAT, read-out: % activity solo application): 0%
- inhibition at 8 g/ha ([6]; 480 h, PRE, EPHHL, 8 gai/ha, 20 DAT, read-out: % activity solo application): 15%
- inhibition at 2 g/ha ([6]; 480 h, PRE, EPHHL, use rate 2 gai/ha, 20 DAT, read-out: solo application % activity): 0%
- inhibition at 8 g/ha ([6]; 480 h, PRE, EPHHL, use rate 8 gai/ha, 20 DAT, read-out: solo application % activity): 15%
- pest or weed control at 2 g/ha ([7]; I-2 solo 2 gai/ha): 40%
- pest or weed control at 8 g/ha ([7]; I-2 solo 8 gai/ha): 50%
